The text below walks through data of patent US20260123630A1, “COMPOSITIONS INCLUDING ENCAPSULATED BIXLOZONE AND NON ENCAPSULATED BIXLOZONE” (FMC CORPORATION, priority 2022, published 2026).

The subject of the series is corn. Nature of the series: Crop injury studies in corn. Type of series: in vivo. As to the method:
The maximum crop injury from encapsulated and non-encapsulated bixlozone compositions were assessed for corn. The compositions were applied at post-seeding pre-emergence and post-emergence.
The numbers in parentheses indicate the application rate of the applied compositions in g ai/ha.

Consider `CCCCCC(C)OC(=O)COc1ccc(Cl)c2cccnc12` (centres unmarked) [cloquintocet-mexyl], for which the “Effect of mixture partner on crop injury (in words)” value is, setting by setting: (post-emergence BBCH 11-12, FIG. 5) “no observed effect”; (post-emergence BBCH 13-15, FIG. 6) “no observed effect”.
